Tests used:
Rab10 = target: T1, Rab10 (Homo sapiens, UniProt P61026); experiment: dynamic scanning fluorimetry (SYPRO Orange); type: binding; conditions: 1 mM nucleotide, 4 uM protein, 2.5 mM MgCl2, pH 7.4
T1 construct: near full-length without C-terminal prenylation region; pET-28a, His6 tag cut by TEV; E. coli BL21(DE3)
T1 sequence (P61026 1-181 limits assumed): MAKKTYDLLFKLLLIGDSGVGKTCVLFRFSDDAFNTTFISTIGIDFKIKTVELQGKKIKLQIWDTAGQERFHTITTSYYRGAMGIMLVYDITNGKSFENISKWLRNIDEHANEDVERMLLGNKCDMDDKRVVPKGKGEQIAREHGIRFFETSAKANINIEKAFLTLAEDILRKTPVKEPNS

Rab7A = target: T2, Rab7A (Homo sapiens, UniProt P51149); experiment: dynamic scanning fluorimetry (SYPRO Orange); type: binding; conditions: 1 mM nucleotide, 4 uM protein, 2.5 mM MgCl2, pH 7.4
T2 construct: near full-length without C-terminal prenylation region; pET-28a, His6 tag cut by TEV; E. coli BL21(DE3)

Rab13 = target: T3, Rab13 (Homo sapiens, UniProt P51153); experiment: dynamic scanning fluorimetry (SYPRO Orange); type: binding; conditions: 1 mM nucleotide, 4 uM protein, 2.5 mM MgCl2, pH 7.4
T3 construct: near full-length without C-terminal prenylation region; pET-28a, His6 tag cut by TEV; E. coli BL21(DE3)
T3 sequence (P51153 1-180 limits assumed): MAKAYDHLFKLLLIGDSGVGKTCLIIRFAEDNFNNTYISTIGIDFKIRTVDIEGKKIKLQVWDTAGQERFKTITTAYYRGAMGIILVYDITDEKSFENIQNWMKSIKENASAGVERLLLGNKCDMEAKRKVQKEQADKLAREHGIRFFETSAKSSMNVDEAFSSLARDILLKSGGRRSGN

Rab43 = target: T4, Rab43 (Homo sapiens, UniProt Q86YS6); experiment: dynamic scanning fluorimetry (SYPRO Orange); type: binding; conditions: 1 mM nucleotide, 4 uM protein, 2.5 mM MgCl2, pH 7.4
T4 construct: near full-length without C-terminal prenylation region; pET-28a, His6 tag cut by TEV; E. coli BL21(DE3)
T4 sequence (Q86YS6 1-185 limits assumed): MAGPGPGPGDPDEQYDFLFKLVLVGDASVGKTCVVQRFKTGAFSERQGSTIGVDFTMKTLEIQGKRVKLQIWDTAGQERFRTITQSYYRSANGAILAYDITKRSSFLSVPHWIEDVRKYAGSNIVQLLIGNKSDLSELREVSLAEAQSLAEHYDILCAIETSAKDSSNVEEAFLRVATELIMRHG

Rab1A = target: T5, Rab1A (Homo sapiens, UniProt P62820); experiment: dynamic scanning fluorimetry (SYPRO Orange); type: binding; conditions: 1 mM nucleotide, 4 uM protein, 2.5 mM MgCl2, pH 7.4
T5 construct: near full-length without C-terminal prenylation region; pET-28a, His6 tag cut by TEV; E. coli BL21(DE3)

Rab2A = target: T6, Rab2A (Homo sapiens, UniProt P61019); experiment: dynamic scanning fluorimetry (SYPRO Orange); type: binding; conditions: 1 mM nucleotide, 4 uM protein, 2.5 mM MgCl2, pH 7.4
T6 construct: near full-length without C-terminal prenylation region; pET-28a, His6 tag cut by TEV; E. coli BL21(DE3)

Rab3A = target: T7, Rab3A (Homo sapiens, UniProt P20336); experiment: dynamic scanning fluorimetry (SYPRO Orange); type: binding; conditions: 1 mM nucleotide, 4 uM protein, 2.5 mM MgCl2, pH 7.4
T7 construct: near full-length without C-terminal prenylation region; pET-28a, His6 tag cut by TEV; E. coli BL21(DE3)
T7 sequence (P20336 1-200 limits assumed): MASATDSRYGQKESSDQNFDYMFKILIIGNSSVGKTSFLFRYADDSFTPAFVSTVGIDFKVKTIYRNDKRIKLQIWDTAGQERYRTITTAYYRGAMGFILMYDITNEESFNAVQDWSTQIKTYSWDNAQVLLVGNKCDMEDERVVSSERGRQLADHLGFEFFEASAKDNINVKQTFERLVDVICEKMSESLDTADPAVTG

Rab8A = target: T8, Rab8A (Homo sapiens, UniProt P61006); experiment: dynamic scanning fluorimetry (SYPRO Orange); type: binding; conditions: 1 mM nucleotide, 4 uM protein, 2.5 mM MgCl2, pH 7.4; shift relative to apo
T8 construct: near full-length without C-terminal prenylation region; pET-28a, His6 tag cut by TEV; E. coli BL21(DE3)
T8 sequence (P61006 1-203 limits assumed): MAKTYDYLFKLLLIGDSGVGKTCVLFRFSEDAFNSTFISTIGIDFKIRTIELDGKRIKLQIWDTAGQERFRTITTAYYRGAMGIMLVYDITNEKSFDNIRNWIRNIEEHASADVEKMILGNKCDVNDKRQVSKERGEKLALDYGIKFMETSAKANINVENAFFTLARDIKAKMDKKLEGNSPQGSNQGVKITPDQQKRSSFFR

Rab15 = target: T9, Rab15 (Homo sapiens, UniProt P59190); experiment: dynamic scanning fluorimetry (SYPRO Orange); type: binding; conditions: 1 mM nucleotide, 4 uM protein, 2.5 mM MgCl2, pH 7.4
T9 construct: near full-length without C-terminal prenylation region; pET-28a, His6 tag cut by TEV; E. coli BL21(DE3)
T9 sequence (P59190 1-208 limits assumed): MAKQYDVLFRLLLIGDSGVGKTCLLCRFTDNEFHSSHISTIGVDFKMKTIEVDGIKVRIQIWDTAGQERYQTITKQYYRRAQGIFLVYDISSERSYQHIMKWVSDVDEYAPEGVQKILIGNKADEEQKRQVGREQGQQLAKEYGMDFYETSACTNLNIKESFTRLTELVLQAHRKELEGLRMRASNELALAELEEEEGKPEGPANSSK

Rab12 = target: T10, Rab12 (Homo sapiens, UniProt Q6IQ22); experiment: dynamic scanning fluorimetry (SYPRO Orange); type: binding; conditions: 1 mM nucleotide, 4 uM protein, 2.5 mM MgCl2, pH 7.4
T10 construct: near full-length without C-terminal prenylation region; pET-28a, His6 tag cut by TEV; E. coli BL21(DE3)
T10 sequence (Q6IQ22 97-318 limits assumed): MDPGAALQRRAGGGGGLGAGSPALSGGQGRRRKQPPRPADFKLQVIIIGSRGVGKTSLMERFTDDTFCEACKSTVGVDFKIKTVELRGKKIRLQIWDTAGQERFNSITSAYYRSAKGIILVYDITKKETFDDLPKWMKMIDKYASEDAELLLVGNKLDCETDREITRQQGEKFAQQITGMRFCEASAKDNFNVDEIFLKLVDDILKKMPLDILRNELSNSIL

Rab9A = target: T11, Rab9A (Homo sapiens, UniProt P51151); experiment: dynamic scanning fluorimetry (SYPRO Orange); type: binding; conditions: 1 mM nucleotide, 4 uM protein, 2.5 mM MgCl2, pH 7.4
T11 construct: near full-length without C-terminal prenylation region; pET-28a, His6 tag cut by TEV; E. coli BL21(DE3)
T11 sequence (P51151 1-180 limits assumed): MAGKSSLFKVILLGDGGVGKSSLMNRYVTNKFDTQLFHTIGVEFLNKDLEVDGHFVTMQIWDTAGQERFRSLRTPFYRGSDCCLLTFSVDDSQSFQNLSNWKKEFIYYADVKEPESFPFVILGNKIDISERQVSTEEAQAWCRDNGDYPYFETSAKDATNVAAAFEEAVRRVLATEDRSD

Rab29 = target: T12, Rab29 (Homo sapiens, UniProt O14966); experiment: dynamic scanning fluorimetry (SYPRO Orange); type: binding; conditions: 1 mM nucleotide, 4 uM protein, 2.5 mM MgCl2, pH 7.4
T12 construct: near full-length without C-terminal prenylation region; pET-28a, His6 tag cut by TEV; E. coli BL21(DE3)
T12 sequence (O14966 1-195 limits assumed): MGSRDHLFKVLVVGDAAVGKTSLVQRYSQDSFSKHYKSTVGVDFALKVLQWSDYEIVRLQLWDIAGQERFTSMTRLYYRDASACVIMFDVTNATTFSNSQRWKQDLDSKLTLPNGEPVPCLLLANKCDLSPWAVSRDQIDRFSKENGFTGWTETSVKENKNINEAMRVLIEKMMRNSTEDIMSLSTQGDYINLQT

Rab8B = target: T13, Rab8B (Homo sapiens, UniProt Q92930); experiment: dynamic scanning fluorimetry (SYPRO Orange); type: binding; conditions: 1 mM nucleotide, 4 uM protein, 2.5 mM MgCl2, pH 7.4
T13 construct: near full-length without C-terminal prenylation region; pET-28a, His6 tag cut by TEV; E. coli BL21(DE3)
T13 sequence (Q92930 1-203 limits assumed): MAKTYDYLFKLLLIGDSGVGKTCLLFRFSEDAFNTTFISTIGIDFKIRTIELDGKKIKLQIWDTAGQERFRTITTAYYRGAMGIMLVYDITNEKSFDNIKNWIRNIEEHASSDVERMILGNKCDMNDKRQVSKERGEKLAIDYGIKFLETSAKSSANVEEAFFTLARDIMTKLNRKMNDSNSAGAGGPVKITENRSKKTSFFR

[1] = target: LRRK2 (Leucine-rich repeat kinase 2) (UniProt Q5S007)
LRRK2 (Leucine-rich repeat kinase 2), sequence (Q5S007 whole entry): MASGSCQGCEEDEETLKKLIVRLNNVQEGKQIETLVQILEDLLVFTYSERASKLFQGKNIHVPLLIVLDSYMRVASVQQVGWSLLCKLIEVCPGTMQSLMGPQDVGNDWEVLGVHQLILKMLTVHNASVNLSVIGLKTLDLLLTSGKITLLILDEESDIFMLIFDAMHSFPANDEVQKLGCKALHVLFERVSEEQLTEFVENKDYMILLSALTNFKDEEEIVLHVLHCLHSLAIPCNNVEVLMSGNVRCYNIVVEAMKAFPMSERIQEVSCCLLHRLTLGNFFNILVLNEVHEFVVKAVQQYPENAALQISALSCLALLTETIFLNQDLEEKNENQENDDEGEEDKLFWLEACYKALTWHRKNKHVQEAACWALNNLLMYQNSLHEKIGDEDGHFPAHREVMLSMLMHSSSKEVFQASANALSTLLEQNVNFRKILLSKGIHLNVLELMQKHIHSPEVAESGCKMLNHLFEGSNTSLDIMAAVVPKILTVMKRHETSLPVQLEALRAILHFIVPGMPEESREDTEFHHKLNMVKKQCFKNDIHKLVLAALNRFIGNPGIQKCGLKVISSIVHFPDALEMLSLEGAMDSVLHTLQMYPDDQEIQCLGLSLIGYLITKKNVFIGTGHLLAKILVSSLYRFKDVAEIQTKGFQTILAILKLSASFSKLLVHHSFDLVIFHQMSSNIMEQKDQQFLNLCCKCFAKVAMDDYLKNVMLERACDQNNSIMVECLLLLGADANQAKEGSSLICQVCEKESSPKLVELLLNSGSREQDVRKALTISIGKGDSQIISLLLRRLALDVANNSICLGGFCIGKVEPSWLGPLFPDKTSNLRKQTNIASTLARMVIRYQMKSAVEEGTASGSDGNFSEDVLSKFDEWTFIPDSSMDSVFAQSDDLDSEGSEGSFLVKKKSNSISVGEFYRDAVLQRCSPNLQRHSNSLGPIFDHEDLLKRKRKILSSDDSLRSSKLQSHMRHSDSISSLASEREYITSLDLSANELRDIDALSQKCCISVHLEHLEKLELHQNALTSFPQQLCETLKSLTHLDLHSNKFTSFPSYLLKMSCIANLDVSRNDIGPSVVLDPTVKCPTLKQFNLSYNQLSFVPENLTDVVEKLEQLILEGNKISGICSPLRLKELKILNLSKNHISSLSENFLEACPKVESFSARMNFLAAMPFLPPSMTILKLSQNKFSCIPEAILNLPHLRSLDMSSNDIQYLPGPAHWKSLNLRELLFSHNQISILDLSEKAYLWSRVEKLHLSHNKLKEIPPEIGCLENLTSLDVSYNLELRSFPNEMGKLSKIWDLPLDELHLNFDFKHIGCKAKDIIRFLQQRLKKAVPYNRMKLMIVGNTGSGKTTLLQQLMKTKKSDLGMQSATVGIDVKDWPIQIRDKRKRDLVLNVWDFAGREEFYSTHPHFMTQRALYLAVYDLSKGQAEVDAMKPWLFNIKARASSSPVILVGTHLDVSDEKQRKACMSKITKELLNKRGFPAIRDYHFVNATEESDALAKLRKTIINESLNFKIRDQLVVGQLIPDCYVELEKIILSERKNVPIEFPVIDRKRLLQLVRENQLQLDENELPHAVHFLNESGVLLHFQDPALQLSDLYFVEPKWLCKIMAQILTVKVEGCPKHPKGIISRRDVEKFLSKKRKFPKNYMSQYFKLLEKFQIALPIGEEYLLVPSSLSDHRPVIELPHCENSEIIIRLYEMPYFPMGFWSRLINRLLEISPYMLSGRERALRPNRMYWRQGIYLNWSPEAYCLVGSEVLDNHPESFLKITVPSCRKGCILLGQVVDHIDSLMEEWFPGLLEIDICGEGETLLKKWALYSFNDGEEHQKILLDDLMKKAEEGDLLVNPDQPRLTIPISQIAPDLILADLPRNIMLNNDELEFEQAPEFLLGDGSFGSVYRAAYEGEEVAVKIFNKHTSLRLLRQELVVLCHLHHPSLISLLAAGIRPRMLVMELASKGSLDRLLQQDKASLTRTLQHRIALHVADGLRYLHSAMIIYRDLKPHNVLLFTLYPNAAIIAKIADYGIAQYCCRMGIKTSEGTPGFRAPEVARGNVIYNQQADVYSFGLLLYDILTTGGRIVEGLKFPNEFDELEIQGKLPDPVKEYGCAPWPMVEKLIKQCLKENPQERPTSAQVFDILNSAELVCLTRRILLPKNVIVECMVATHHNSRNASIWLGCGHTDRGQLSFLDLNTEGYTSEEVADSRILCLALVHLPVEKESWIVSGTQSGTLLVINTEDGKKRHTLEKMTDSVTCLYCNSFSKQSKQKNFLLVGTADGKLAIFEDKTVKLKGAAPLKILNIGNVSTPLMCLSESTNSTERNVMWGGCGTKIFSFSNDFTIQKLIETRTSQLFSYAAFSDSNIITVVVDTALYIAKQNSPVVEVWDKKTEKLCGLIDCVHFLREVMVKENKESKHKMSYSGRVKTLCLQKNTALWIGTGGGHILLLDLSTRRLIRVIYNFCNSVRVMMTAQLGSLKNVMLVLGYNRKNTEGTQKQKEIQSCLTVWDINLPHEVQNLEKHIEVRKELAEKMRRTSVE

T2 sequence (P51149 1-185 limits assumed): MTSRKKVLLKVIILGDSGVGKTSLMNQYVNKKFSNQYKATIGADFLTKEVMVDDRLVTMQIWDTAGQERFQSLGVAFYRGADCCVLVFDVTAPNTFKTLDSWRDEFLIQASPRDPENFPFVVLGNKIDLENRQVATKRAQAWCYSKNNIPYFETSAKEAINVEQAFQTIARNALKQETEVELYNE
T6 sequence (P61019 1-210 limits assumed): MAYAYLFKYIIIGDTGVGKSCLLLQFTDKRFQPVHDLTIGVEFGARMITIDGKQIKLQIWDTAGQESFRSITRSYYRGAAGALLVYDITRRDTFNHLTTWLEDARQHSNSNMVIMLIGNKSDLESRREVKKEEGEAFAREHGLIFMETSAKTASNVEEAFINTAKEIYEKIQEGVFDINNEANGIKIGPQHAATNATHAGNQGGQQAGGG
T5 sequence (P62820 1-203 limits assumed): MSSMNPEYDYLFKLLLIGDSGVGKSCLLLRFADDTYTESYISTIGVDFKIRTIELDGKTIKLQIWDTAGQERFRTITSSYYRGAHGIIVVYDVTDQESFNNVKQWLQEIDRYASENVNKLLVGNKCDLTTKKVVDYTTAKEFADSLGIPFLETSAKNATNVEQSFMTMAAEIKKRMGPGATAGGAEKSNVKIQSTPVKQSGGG

dTm (Rab8A) | Molecule | Tm (Rab10) | Tm (Rab7A) | Tm (Rab13) | Tm (Rab9A) | further results
15 K | Nc1nc2c(ncn2[C@@H]2O[C@H](COP(=O)(O)OP(=O)(O)O)[C@@H](O)[C@H]2O)c(=O)[nH]1 [GDP] | All Rabs from the panel bound to and were stabilized by guanine nucleotides. | All Rabs from the panel bound to and were stabilized by guanine nucleotides. | for several Rabs including Rab9A and Rab13, the Rab:GDP and Rab:GTP complexes displayed equal stability | for several Rabs including Rab9A and Rab13, the Rab:GDP and Rab:GTP complexes displayed equal stability | Tm (Rab43): All Rabs from the panel bound to and were stabilized by guanine nucleotides.; Tm (Rab1A): All Rabs from the panel bound to and were stabilized by guanine nucleotides.; Tm (Rab2A): All Rabs from the panel bound to and were stabilized by guanine nucleotides.; Tm (Rab3A): All Rabs from the panel bound to and were stabilized by guanine nucleotides.; Tm (Rab15): All Rabs from the panel bound to and were stabilized by guanine nucleotides.; Tm (Rab12): All Rabs from the panel bound to and were stabilized by guanine nucleotides.; Tm (Rab29): All Rabs from the panel bound to and were stabilized by guanine nucleotides.; Tm (Rab8B): All Rabs from the panel bound to and were stabilized by guanine nucleotides.
21 K | Nc1nc2c(ncn2[C@@H]2O[C@H](COP(=O)(O)OP(=O)(O)OP(=O)(O)O)[C@@H](O)[C@H]2O)c(=O)[nH]1 [GTP] | All Rabs from the panel bound to and were stabilized by guanine nucleotides. | All Rabs from the panel bound to and were stabilized by guanine nucleotides. | for several Rabs including Rab9A and Rab13, the Rab:GDP and Rab:GTP complexes displayed equal stability | for several Rabs including Rab9A and Rab13, the Rab:GDP and Rab:GTP complexes displayed equal stability | 
 | Rab8A E108R (from UniProt P61006 1-207) (natural protein) |  |  |  |  | T72 phosphograde of the Rab8A:GDP variant after phosphorylation by LRRK2, relative to wildtype Rab8A (ESI-TOF MS kinase activity assay) (fold (increase)) [1]: 18
 | Rab8A R104A (from UniProt P61006 1-207) (natural protein) |  |  |  |  | T72 phosphograde of the Rab8A:GDP variant after phosphorylation by LRRK2, relative to wildtype Rab8A (ESI-TOF MS kinase activity assay) (fold (reduced)) [1]: 2
